{"source": "patent US8216782B2", "about": "“PTTG1 as a biomarker for cancer treatment” (Cedars-Sinai Medical Center, priority 2008, dated 2012)", "format_in_all_cases": "cell-based", "key": {"HCT116 WT cells": {"system": "HCT116 WT cells", "experiment": "WST-1 cell proliferation assay", "method": "(§1) FIG. 4 depicts that PTTG1 regulates cell response to Aurora Kinase inhibition, in accordance with an embodiment of the present invention. (A) PTTG1^−/− cell proliferation was attenuated in response to Aurora Kinase A siRNA (mean±S.D., n=3. P<0.05 vs WT). Cells were seeded into 96-well plates, cultured overnight, and then transfected with siRNAs (100 nM). After 72 hours, premixed WST-1 cell proliferation reagent (10 ul) was added to each well. Cells were incubated for a further four hours and shaken thoroughly for one minute before measurement. […] Cells were seeded into 96-well plates, cultured overnight, and then treated with drug as indicated for 48 hours. Viable cells were measured using Premixed WST-1 cell proliferation reagent. (C) Anchorage-dependent colony formation assay was performed as described herein. […] (mean±S.D., n=3. P<0.05 vs WT) (D) Western blot showing that over-expressed PTTG1 rescued PTTG1^−/− sensitivity to Aurora Kinase inhibitor III (12.5 uM) (mean±S.D., n=3. P>0.05 vs WT); PTTG1 knock-down enhanced WT cell sensitivity to Aurora Kinase inhibitor III (12.5 uM) (mean±S.D., n=3. P>0.05 vs PTTG1^−/−). PTTG1^−/−=PTTG1-null or KO cells.\n(§2) Cell proliferation was evaluated using WST-1 cell proliferation reagent (obtained from Clontech Laboratories, Inc.; Mountain View, Calif.). Briefly, 90 μl cells were seeded into 96-well plates and cultured overnight, treated with drugs for 48 hours, and 10 μl premixed WST-1 cell proliferation reagent added. Cells were incubated for a further four hours, shaken and absorbance measured at 450 nm using a Victor 3 multiwell plate reader (obtained from PerkinElmer, Inc.; Waltham, Mass.). Cell viability rate was calculated for each well as A450 treated cells/A450 control cells×100% (A450: OD value at 450 nm)."}, "HCT116 PTTG1−/− cells [1]": {"system": "HCT116 PTTG1−/− cells", "experiment": "WST-1 cell proliferation assay", "conditions": "for sensitivity of PTTG1−/− cell growth versus WT (WST-1): PTTG1−/− vs WT HCT116 cells", "method": "as §1, §2"}, "HCT116 PTTG1−/− cells [2]": {"system": "HCT116 PTTG1−/− cells", "experiment": "Anchorage-dependent colony formation assay", "conditions": "PTTG1−/− vs WT HCT116 cells", "method": "Briefly, 20,000 cells were plated in a six-well culture dish, allowed to attach overnight and treated with depicted drug concentrations. Cells were cultured in standard culture medium containing indicated treatments for twelve days and medium re-freshened every three days. Colonies were stained with 0.5% crystal violet in methanol/acetic acid (3:1) and those composed of >50 cells were counted."}, "HCT116 PTTG1−/− cells [3]": {"system": "HCT116 PTTG1−/− cells", "experiment": "BrdU incorporation assay", "method": "The BrdU incorporation assay was carried out using a commercial kit. Briefly, culture cells in 96-well microplates in a final volume of 100 ul culture medium per well. After treatment, add 10 ul BrdU labeling solution per well (final concentration: 10 uM BrdU) and incubate for 2-18 h at 37° C. Carefully remove the culture medium and wash cells twice with 250 ul wash medium containing 10% serum per well. Cells fixed and treated with nucleases working solution for 30 min at 37° C. The incorporated BrdU is detected using anti-BrdU-POD, Fab fragments and peroxidase substrate ABTS. The absorbances of the samples are measured at 405 nm against the background control, using a Victor 3 multiwell plate reader."}}}
{"compound": "PTTG1 siRNA: siRNA 16706, SEQ. ID. NO.: 7 and 8, purchased from Ambion (chain 1 GUCUGUAAAGACCAAGGGA; chain 2 UCCCUUGGUCUUUACAGAC; listed as RNA, chemistry not given here; listed as Homo sapiens)", "values": [{"measurement": "effect of PTTG1 knock down on sensitivity to Aurora Kinase inhibitor III", "setting": "HCT116 WT cells; WT HCT116 cells, inhibitor III 12.5 uM", "result": "increased HCT116 cell sensitivity"}]}
{"compound": "COc1cc2ncnc(Nc3ccc(NC(=O)c4ccccc4)cc3)c2cc1OC", "note": "[Aurora Kinase Inhibitor II, 4-(4′-Benzamidoanilino)-6,7-dimethoxyquinazoline]", "values": [{"measurement": "sensitivity of PTTG1−/− cell growth versus WT (WST-1)", "setting": "HCT116 PTTG1−/− cells [1]", "result": "more susceptible than WT cells"}]}
{"compound": "O=C(Nc1cccc(Nc2nccc(Nc3cccc(C(F)(F)F)c3)n2)c1)C1CC1", "note": "[Aurora Kinase Inhibitor III, Cyclopropanecarboxylic acid-(3-(4-(3-trifluoromethyl-phenylamino)-pyrimidin-2-ylamino)-phenyl)-amide]", "values": [{"measurement": "viability at 12.5 µM", "setting": "HCT116 WT cells; Homo sapiens, HCT-116, WT cells, 12.5 uM for 48 h, read-out: cells remaining viable", "result": 73, "unit": "%"}, {"measurement": "effect on the WT versus PTTG1−/− difference in response to doxorubicin", "setting": "HCT116 PTTG1−/− cells [1]; 3 μM inhibitor pre-incubation or siRNA, 0.63 μM doxorubicin", "result": "abolished the different response"}, {"measurement": "viability at 12.5 µM", "setting": "HCT116 PTTG1−/− cells [1]; Homo sapiens, HCT-116, PTTG1-null HCT116 cells, 12.5 uM for 48 h, read-out: cells remaining viable", "result": 56, "unit": "%"}, {"measurement": "sensitivity of PTTG1−/− cell growth versus WT (WST-1)", "setting": "HCT116 PTTG1−/− cells [1]", "result": "more sensitive"}, {"measurement": "sensitivity of PTTG1−/− cells versus WT (colony formation)", "setting": "HCT116 PTTG1−/− cells [2]", "result": "more sensitive"}]}
{"compound": "CC(=O)N[C@@H](CS)C(=O)O", "note": "[N-acetyl cysteine (NAC), N-acetyl cysteine]", "values": [{"measurement": "effect of ROS quencher on PTTG1−/− cell sensitivity to ROS-generating agents", "setting": "HCT116 PTTG1−/− cells [3]", "result": "rescue PTTG1−/− cells sensitivity"}]}
{"compound": "Nc1nc(Nc2ccc(S(N)(=O)=O)cc2)nn1C(=O)c1c(F)cccc1F", "note": "[Aurora Kinase/CDK inhibitor, 4-(5-Amino-1-(2,6-difluorobenzoyl)-1H-[1,2,4]triazol-3-ylamino)-benzenesulfonamide]", "values": [{"measurement": "sensitivity of PTTG1−/− cell growth versus WT (WST-1)", "setting": "HCT116 PTTG1−/− cells [1]", "result": "more susceptible than WT cells"}]}
{"compound": "S=C=NCCc1ccccc1", "note": "[PEITC, phenethyl isothiocyanate]", "values": [{"measurement": "sensitivity of PTTG1−/− cells to ROS-generating agents", "setting": "HCT116 PTTG1−/− cells [3]", "result": "enhanced sensitivity"}]}
{"compound": "OO", "note": "[H2O2]", "values": [{"measurement": "sensitivity of PTTG1−/− cells to ROS-generating agents", "setting": "HCT116 PTTG1−/− cells [3]", "result": "enhanced sensitivity"}]}
